# Entries after “also recorded” stand apart in the source; their conditions may differ. Read-outs that look alike come from different tables or passages of the source.
# Tests used:
# anti-Chlamydia abzymes [1] = assay type: biochemical, human
# Description: (§1) For chemical inactivation, a diluent solution was divided into two portions. In one portion, an abzyme inhibitor was added.
# (§2) The serum sample was split in two aliquots and one aliquot was diluted by solution containing the abzyme inhibitor, the second aliquot was diluted by the control solution. The aliquots were then tested in the same fashion.
# Lipid peroxidation was assessed as a level of MDA concentration, which was measured by spectrophotometric methods [Draper, H. H. et al Free Radio. Biol. Med. (1993) 15, 353]. Briefly, the level of abzymes in a sample was determined as follows: Samples of sera were diluted 1:1 by 0.05M acetate buffer pH 4.0 to make the final pH of these samples between 5.6-5.8. 994 μl of the diluted serum was mixed with 10 μl of the commercial live ovine Chlamydia vaccine (Intervet). Samples were incubated overnight (12-16 hours) at 37° C. 250 μl of 40% trichloroacetic acid and 250 μl of 1 mM 2-thiobarbituric acid was added to each sample. All samples were placed in a water bath and boiled for 30 minutes. Samples were cooled down and centrifuged at 3,000 g for 10 minutes. The supernatants were collected and their absorption measured at λ525 nm to determine the concentration of malondialdehydes (MDA), which are products of lipid peroxidation.
# anti-Chlamydia abzymes [2] = assay type: biochemical, human; remark: listed apart in the source
# Description: as §1, §2
# ELISA assays were performed using Medac materials and reagents, which were used in accordance with the manufacturers instructions.
# Briefly, serum samples from patients were treated as described above. 50 μl of sample diluent was pipetted into microtitre well Al as blank, and 50 μl of the negative control, Positive Control and the diluted patients' samples were pipetted into other microtitre wells. The microplate wells were incubated for 60 min (±5 min) at 37° C. (±1° C.) in a humid chamber and then washed three times with 200 μl wash buffer per well. 50 μl of Conjugate was then added to each well and the microplate wells incubated again for 60 min (±5 min) at 37° C. (±1° C.) in a humid chamber and then washed. 50 μl of TME-Substrate, was added to each well and the microplate wells incubated for 30 min (±2 min) at 37° C. (±1° C.) in a humid chamber. The reaction was stopped by adding 100 μl of Stop Solution, to each well.
# Photometric reading was performed at 450 nm (ref. 620-650 nm) within 15 min after adding the Stop Solution.
# To calculate the results, the OD value of the blank (well Al) was subtracted from all other OD values. […] Cut-off=mean OD value of the Negative Control+0.380. Grey zone=Cut-off±10%
# If there was a difference between 10 and 15% (or an increase in one titer in MIF) of the signal between treated and non-treated samples the conclusion was that the activity of the abzymes was unclear, or in the “grey” zone.
# [3] = serum with live ovine Chlamydia vaccine, pH 5.6-5.8, overnight 37° C.
# [4] = serum diluted with inhibitor solution vs control solution
# [5] = summary in text, tested by ELISA and the lipid oxidation assay
Compound,"Inhibition of abzymes ability to cause: Serum lipid peroxidation, in MDA assay (anti-Chlamydia abzymes [1]; pH 5.6)","Inhibition of abzymes ability to cause: Damage of Chlamydia pneumoniae antigen, in ELISA (anti-Chlamydia abzymes [2])","Inhibition of abzymes ability to cause: Serum lipid peroxidation, in MDA assay (anti-Chlamydia abzymes [1]; [3])","Inhibition of abzymes ability to cause: Damage of Chlamydia pneumoniae antigen, in ELISA (anti-Chlamydia abzymes [2]; [4])",further results
Cc1c(O)cc2c(c1C)O[C@](C)(CCC[C@H](C)CCC[C@H](C)CCCC(C)C)CC2 [(+) y-Tocopherol],Negative,Negative,–,–,–
Cc1c(C)c2c(c(C)c1O)CC[C@@](C)(CCC[C@H](C)CCC[C@H](C)CCCC(C)C)O2 [(+) α-Tocopherol],–,–,Negative,Negative,–
CC(=O)Oc1ccccc1C(=O)O [Acetyl salicylic acid],–,–,Positive,Positive,Inhibition of abzyme activity (statement in text) (anti-Chlamydia abzymes [2]; tested by ELISA and the lipid oxidation assay): inhibit abzyme activity; also recorded: abzyme inhibitors
O=C1O[C@H]([C@@H](O)CO)C(O)=C1O [Ascorbic acid],–,–,Positive,Positive,"Inhibition of abzyme activity (statement in text) (anti-Chlamydia abzymes [2]; [5]): inhibit abzyme activity; Inhibition of abzyme activity (statement in text) (anti-Chlamydia abzymes [2]; summary in text, tested by ELISA and the lipid oxidation assay, listed as ascorbic acid): abzyme inhibitors"
O=C(O)c1ccccc1 [Benzoic acid],Negative,Negative,–,–,–
OC[C@@H](O)[C@@H](O)[C@H](O)[C@H](O)CO [D-Mannitol],–,–,Negative,Negative,–
C[S+](C)[O-] [DMSO],–,–,Positive,Positive,"Inhibition of abzyme activity (statement in text) (anti-Chlamydia abzymes [2]; [5]): inhibit abzyme activity; also recorded: abzyme inhibitors; Inhibition of abzyme activity (statement in text) (anti-Chlamydia abzymes [2]; tested by ELISA and the lipid oxidation assay, listed as DMS): abzyme inhibitors"
O=C(O)CN(CCN(CC(=O)O)CC(=O)O)CC(=O)O [EDTA],Positive,Positive,–,–,Inhibition of abzyme activity (statement in text) (anti-Chlamydia abzymes [2]): inhibit abzyme activity
O=C(O)CN(CCOCCOCCN(CC(=O)O)CC(=O)O)CC(=O)O [EGTA],–,–,–,Positive,Inhibition of abzyme activity (statement in text) (anti-Chlamydia abzymes [2]; [5]): inhibit abzyme activity
CC(C)=CCC/C(C)=C/C=C/C(C)=C/C=C/C(C)=C/C=C/C=C(C)/C=C/C=C(C)/C=C/C=C(\C)CCC=C(C)C [Lycopene],–,–,Negative,Negative,–
"CC[C@H]1OC(=O)[C@H](C)C(=O)[C@H](C)[C@@H](O[C@@H]2O[C@H](C)C[C@H](N(C)C)[C@H]2O)[C@](C)(OC)C[C@@H](C)C(=O)[C@H](C)[C@H]2N(CCCCn3cnc(-c4cccnc4)c3)C(=O)O[C@]12C [Telithromycin, Ketek, Telithromycin]",–,–,Positive,Positive,"Inhibition of abzyme activity (statement in text) (anti-Chlamydia abzymes [2]; summary in text, tested by ELISA and the lipid oxidation assay, listed as telithromycin): abzyme inhibitors; Inhibition of abzyme activity (statement in text) (anti-Chlamydia abzymes [2]; summary in text, tested by ELISA and the lipid oxidation assay, listed as telithromycin ketek): inhibit abzyme activity; Inhibition of abzyme activity (statement in text) (anti-Chlamydia abzymes [2]; summary in text, tested by ELISA and the lipid oxidation assay, listed as telithromycin-ketek): abzyme inhibitors"
CC[C@H]1OC(=O)[C@H](C)[C@@H](O[C@H]2C[C@@](C)(OC)[C@@H](O)[C@H](C)O2)[C@H](C)[C@@H](O[C@@H]2O[C@H](C)C[C@H](N(C)C)[C@H]2O)[C@](C)(O)C[C@@H](C)CN(C)[C@H](C)[C@@H](O)[C@]1(C)O [azithromycin],–,–,–,–,Inhibition of abzyme activity (statement in text) (anti-Chlamydia abzymes [2]; [5]): abzyme inhibitors
CC1=C(/C=C/C(C)=C/C=C/C(C)=C/C=C/C=C(C)/C=C/C=C(C)/C=C/C2=C(C)CCCC2(C)C)C(C)(C)CCC1 [β-Carotene],Negative,Negative,–,–,–
(+) Catechin gallate,–,–,Positive,Positive,"Inhibition of abzyme activity (statement in text) (anti-Chlamydia abzymes [2]; summary in text, tested by ELISA and the lipid oxidation assay, listed as (+) catechin gallate): abzyme inhibitors; Inhibition of abzyme activity (statement in text) (anti-Chlamydia abzymes [2]; summary in text, tested by ELISA and the lipid oxidation assay, listed as catechin gallate): inhibit abzyme activity; also recorded: abzyme inhibitors"
Haemoglobin,Positive,Positive,–,–,Inhibition of abzyme activity (statement in text) (anti-Chlamydia abzymes [2]): inhibit abzyme activity; also recorded: abzyme inhibitors

# From US20130095505A1, “DETECTION OF LIPID OXIDISING ABZYMES IN SAMPLES” (priority 2005, published 2013)
